Laboratory results published in the NIST ThermoML archive (doi:10.1021/acs.jced.7b00572).

Settings: Liquid, Vibrating wire viscometry

O=C(C(F)(F)C(F)(F)F)C(F)(C(F)(F)F)C(F)(F)F [dodecafluoro-2-methylpentan-3-one]
Settings	viscosity [mPa·s]
243.15 K, 10000 kPa	1.923
243.15 K, 20000 kPa	2.329
243.15 K, 40000 kPa	3.247
243.16 K, 100 kPa	1.597
243.16 K, 1000 kPa	1.628
243.16 K, 5000 kPa	1.749
243.16 K, 30000 kPa	2.761
253.15 K, 100 kPa	1.307
253.15 K, 1000 kPa	1.339
253.15 K, 5000 kPa	1.451
253.15 K, 10000 kPa	1.58
253.15 K, 20000 kPa	1.913
253.15 K, 30000 kPa	2.26
253.16 K, 40000 kPa	2.659
263.14 K, 5000 kPa	1.197
263.14 K, 10000 kPa	1.327
263.14 K, 20000 kPa	1.573
263.14 K, 30000 kPa	1.86
263.14 K, 40000 kPa	2.169
263.15 K, 100 kPa	1.082
263.15 K, 1000 kPa	1.107
273.14 K, 100 kPa	0.9209
273.14 K, 20000 kPa	1.332
273.15 K, 1000 kPa	0.9395
273.15 K, 5000 kPa	1.014
273.15 K, 10000 kPa	1.117
273.15 K, 30000 kPa	1.566
273.15 K, 40000 kPa	1.818
283.15 K, 100 kPa	0.7823
283.15 K, 1000 kPa	0.7955
283.15 K, 5000 kPa	0.8641
283.15 K, 10000 kPa	0.9569
283.15 K, 20000 kPa	1.142
283.15 K, 30000 kPa	1.345
283.15 K, 40000 kPa	1.567
293.14 K, 10000 kPa	0.8262
293.15 K, 100 kPa	0.6693
293.15 K, 1000 kPa	0.6851
293.15 K, 5000 kPa	0.7466
293.15 K, 40000 kPa	1.35
293.16 K, 20000 kPa	0.9881
293.16 K, 30000 kPa	1.156
303.14 K, 5000 kPa	0.6463
303.15 K, 100 kPa	0.5776
303.15 K, 10000 kPa	0.7173
303.15 K, 20000 kPa	0.861
303.15 K, 40000 kPa	1.177
303.16 K, 1000 kPa	0.5906
303.16 K, 30000 kPa	1.013
313.13 K, 1000 kPa	0.5123
313.14 K, 5000 kPa	0.5621
313.14 K, 20000 kPa	0.7566
313.14 K, 30000 kPa	0.8908
313.15 K, 100 kPa	0.5006
313.15 K, 10000 kPa	0.6263
313.15 K, 40000 kPa	1.033
323.16 K, 1000 kPa	0.4465
323.16 K, 20000 kPa	0.668
323.16 K, 30000 kPa	0.7894
323.16 K, 40100 kPa	0.9178
323.17 K, 5000 kPa	0.4933
323.17 K, 10000 kPa	0.5514
333.16 K, 1000 kPa	0.3918
333.16 K, 5000 kPa	0.4349
333.16 K, 10000 kPa	0.4891
333.16 K, 20000 kPa	0.5966
333.16 K, 30000 kPa	0.7059
333.16 K, 40000 kPa	0.8211
343.15 K, 5000 kPa	0.3849
343.15 K, 10000 kPa	0.4348
343.15 K, 20000 kPa	0.5345
343.15 K, 30000 kPa	0.6351
343.15 K, 40000 kPa	0.7373
343.16 K, 1000 kPa	0.342
353.15 K, 1000 kPa	0.3011
353.15 K, 30000 kPa	0.5739
353.15 K, 40000 kPa	0.6681
353.16 K, 5000 kPa	0.3426
353.16 K, 10000 kPa	0.3892
353.16 K, 20000 kPa	0.4822
363.15 K, 5000 kPa	0.3044
363.15 K, 10000 kPa	0.3496
363.15 K, 20000 kPa	0.436
363.15 K, 30000 kPa	0.5213
363.15 K, 40000 kPa	0.608
373.15 K, 5000 kPa	0.2711
373.15 K, 10000 kPa	0.3155
373.15 K, 20000 kPa	0.397
373.15 K, 30000 kPa	0.4778
373.15 K, 40000 kPa	0.5583
